Laboratory results: patent publication US20230159496A1, “COMPOUNDS AND METHODS FOR MODULATING SPLICING” (REMIX THERAPEUTICS INC., priority 2020, published 2023)
Where two headings read alike, the source gives them in different places.

Tests used:
Assay type in all cases: cell-based
HTT mRNA = experiment: Splicing assay (RT-qPCR) monitoring HTT canonical junction (CJ) and alternative junction (AJ) mRNA isoforms; settings: A673 or K562 cells, 24 h treatment, top dose 10 uM
In short: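 A673 or K562 cells treated 24 h at 37 °C with an 11-point 3-fold dilution (top 10 uM final, DMSO ≤0.25%). Lysates assayed by one-step RT-qPCR for HTT CJ and AJ isoforms, normalized to GAPDH, GUSB (K562) or PPIA (A673).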

HTT CJ mRNA = experiment: Gene panel canonical junction qPCR assay, HTT; settings: decrease in CJ mRNA levels, gene panel; read-out: HTT IC50
In short: (§1)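 A673 or K562 cells were treated for 24 h at 37 °C with an 11-point 3-fold dilution, top dose 10 uM, DMSO ≤0.25%. Canonical junction mRNA in lysates was quantified by one-step RT-qPCR and normalized to GAPDH, GUSB or PPIA.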

SMN2 CJ mRNA = experiment: Gene panel canonical junction qPCR assay, SMN2; settings: decrease in CJ mRNA levels, gene panel; read-out: SMN2 IC50
In short: as §1

Target C CJ mRNA = experiment: Gene panel canonical junction qPCR assay, Target C; settings: decrease in CJ mRNA levels, gene panel; read-out: Target C IC50
In short: as §1

[1] = decrease in CJ mRNA (50% response), read-out: HTT CJ AC50
[2] = increase in AJ mRNA (50% response), read-out: HTT AJ AC50

SMILES | AC50 (HTT mRNA; [1]) | AC50 (HTT mRNA; [2]) | IC50 (HTT CJ mRNA) | IC50 (SMN2 CJ mRNA) | IC50 (Target C CJ mRNA)
Cc1cn2cc(-c3cc(F)c4c(=O)n(C5CCNCC5)cnc4c3)cc(F)c2n1 [Compound 230, 5-fluoro-7-{8-fluoro-2-methylimidazo [1,2-a]pyridin-6-yl}-3-(piperidin-4-yl)quinazolin-4-one] | < 0.1 µM | < 0.1 µM | < 0.1 µM | < 0.1 µM | < 0.1 µM
Cc1cn2cc(-c3ccc4c(=O)n(C5CCN(C)CC5)cnc4c3)ncc2n1 [Compound 308] | 1 to 10 µM | 1 to 10 µM | 1 to 10 µM | 0.1 to 1 µM | 1 to 10 µM
Cc1cn2nc(-c3ccc4c(=O)n(C5CCN(C)C5)ncc4c3)cc(C)c2n1 (stereo not drawn) [Compound 271, 6-{2,8-dimethylimidazo[1,2-b]pyridazin-6-yl}-2-(1-methylpyrrolidin-3-yl)phthalazin-1-one] | 1 to 10 µM | 1 to 10 µM | 1 to 10 µM | 0.1 to 1 µM | 1 to 10 µM
Cc1cn2nc(-c3cc(F)c4c(=O)n(C5CCN(C)CC5)cnc4c3)cc(C)c2n1 [Compound 242, 7-(2,8-dimethylimidazo[1,2-b]pyridazin-6-yl)-5-fluoro-3-(1-methylpiperidin-4-yl)quinazolin-4(3H)-one] | < 0.1 µM | < 0.1 µM | < 0.1 µM | < 0.1 µM | 0.1 to 1 µM
Cc1cn2nc(-c3ccc4c(c3)CCN(C3CCNC3)C4=O)cc(C)c2n1 (stereo not drawn) [Compound 269, 6-{2,8-dimethylimidazo[1,2-b]pyridazin-6-yl}-2-(pyrrolidin-3-yl)-3,4-dihydroisoquinolin-1-one] | > 10 µM | > 10 µM | > 10 µM | 1 to 10 µM | > 10 µM
Cc1cn2cc(-c3ccc4c(c3)CCN(C3CCNCC3)C4=O)cc(C(F)(F)F)c2n1 [Compound 252, 6-[2-methyl-8-(trifluoromethyl)imidazo[1,2-a]pyridin-6-yl]-2-(piperidin-4-yl)-3,4-dihydroisoquinolin-1-one] | > 10 µM | > 10 µM | > 10 µM | 0.1 to 1 µM | > 10 µM
Cc1cn2nc(-c3ccc4c(=O)n(C5CCNCC5)cnc4c3)cc(C)c2n1 [Compound 181] | 0.1 to 1 µM | 0.1 to 1 µM | 0.1 to 1 µM | < 0.1 µM | 0.1 to 1 µM
Cc1nc2c(F)cc(-c3ccc4c(c3)CCN(C3CCNCC3)C4=O)cc2s1 [Compound 226] | > 10 µM | > 10 µM | > 10 µM | 0.1 to 1 µM | > 10 µM
Cc1cn2nc(-c3ccc4c(=O)n([C@H]5CCN(C)[C@H](C)C5)ncc4c3)cc(C)c2n1 [Compound 278] | < 0.1 µM | < 0.1 µM | < 0.1 µM | < 0.1 µM | 0.1 to 1 µM
Cc1cn2cc(-c3ccc4c(c3)CCN(C3CCNCC3)C4=O)cc(Cl)c2n1 [Compound 216] | 1 to 10 µM | 1 to 10 µM | 1 to 10 µM | < 0.1 µM | 1 to 10 µM
Cc1nc2c(F)cc(-c3ccc4c(c3)CCN(C3CCNCC3)C4=O)cc2o1 [Compound 215] | 1 to 10 µM | 1 to 10 µM | 1 to 10 µM | < 0.1 µM | 1 to 10 µM
Cc1cc(-c2ccc3c(=O)n(N4CCN(C)CC4)cnc3c2)cc2cn(C)nc12 [Compound 175, 7-(2,7-dimethyl-2H-indazol-5-yl)-3-(4-methylpiperazin-1-yl)quinazolin-4(3H)-one] | > 10 µM | 1 to 10 µM | 1 to 10 µM | 1 to 10 µM | > 10 µM
Cc1cn2cc(-c3ccc4c(c3)CCN(C3CCNCC3)C4=O)c(C)cc2n1 [Compound 218] | 1 to 10 µM | 1 to 10 µM | 1 to 10 µM | 1 to 10 µM | 1 to 10 µM
Cc1cn2nc(-c3ccc4c(=O)n(C5CCNCC5)ncc4c3)nc2c(C)n1 [Compound 259] | 0.1 to 1 µM | 0.1 to 1 µM | 0.1 to 1 µM | 0.1 to 1 µM | 0.1 to 1 µM
Cc1cc(-c2ccc3nc(N4CCNCC4)[nH]c(=O)c3c2)cc2cn(C)nc12 [Compound 166, 6-(2,7-dimethyl-2H-indazol-5-yl)-2-(piperazin-1-yl)quinazolin-4(3H)-one] | 1 to 10 µM | 1 to 10 µM | 1 to 10 µM | 1 to 10 µM | 1 to 10 µM
Cc1cc(-c2ccc3c(=O)n(C4CCN(C)CC4)cnc3c2F)cc2cn(C)nc12 [Compound 235, 7-(2,7-dimethyl-2H-indazol-5-yl)-8-fluoro-3-(1-methylpiperidin-4-yl)quinazolin-4(3H)-one] | > 10 µM | > 10 µM | > 10 µM | 0.1 to 1 µM | > 10 µM
O=c1c2ccc(-c3cn[nH]c3)cc2ncn1C1CCNCC1 [Compound 284] | > 10 µM | > 10 µM | > 10 µM | 1 to 10 µM | > 10 µM
Cc1nc2c(F)cc(-c3ccc4c(=O)n(C5CCNCC5)cnc4c3)cc2s1 [Compound 285] | 1 to 10 µM | > 10 µM | 1 to 10 µM | < 0.1 µM | > 10 µM
Cc1cc(-c2ccc3c(=O)n(C4CCNCC4)cnc3c2F)cc2cn(C)nc12 [Compound 234, 7-(2,7-dimethyl-2H-indazol-5-yl)-8-fluoro-3-(piperidin-4-yl)quinazolin-4(3H)-one] | 1 to 10 µM | 1 to 10 µM | 1 to 10 µM | < 0.1 µM | > 10 µM
CC[C@@H]1C[C@H](n2ncc3cc(-c4cc(C)c5nc(C)cn5n4)ccc3c2=O)CCN1 [Compound 304, 6-{2,8-dimethylimidazo[1,2-b]pyridazin-6-yl}-2-[(2R,4R)-2-ethylpiperidin-4-yl]phthalazin-1-one] | 1 to 10 µM | 1 to 10 µM | 0.1 to 1 µM | < 0.1 µM | 1 to 10 µM
Cc1cc(-c2ccc3c(=O)n(C4CCNCC4)ncc3c2)cc2cn(C)nc12 [Compound 251] | 0.1 to 1 µM | 0.1 to 1 µM | 0.1 to 1 µM | < 0.1 µM | 0.1 to 1 µM
Cc1cn2nc(-c3ccc4nc(NC5CCNCC5)[nH]c(=O)c4c3)cc(C)c2n1 [Compound 192, 6-(2,8-dimethylimidazo[1,2-b]pyridazin-6-yl)-2-(piperidin-4-ylamino)quinazolin-4(3H)-one] | > 10 µM | > 10 µM | > 10 µM | > 10 µM | > 10 µM
CN1CCC(n2cnc3cc(-c4cn[nH]c4)ccc3c2=O)CC1 [Compound 299] | > 10 µM | > 10 µM | > 10 µM | > 10 µM | > 10 µM
Cn1cc2ccc(-c3ccc4c(=O)n(C5CCNCC5)ncc4c3)cc2n1 [Compound 263] | > 10 µM | > 10 µM | > 10 µM | > 10 µM | > 10 µM
Cc1cn2nc(-c3ccc4c(c3)CCN(C3CCNC(C)(C)C3)C4=O)cc(C)c2n1 (stereo not drawn) [Compound 267] | 1 to 10 µM | 0.1 to 1 µM | 1 to 10 µM | < 0.1 µM | 1 to 10 µM
Cc1cn2cc(-c3ccc4c(=O)n(C5CCNCC5)ncc4c3)c(C)cc2n1 [Compound 254] | 1 to 10 µM | 1 to 10 µM | 1 to 10 µM | 1 to 10 µM | 1 to 10 µM
Cc1cn2cc(-c3ccc4c(=O)n(C5CCN(C)CC5)cnc4c3)c(C)cc2n1 [Compound 246] | 1 to 10 µM | 1 to 10 µM | 1 to 10 µM | 1 to 10 µM | 1 to 10 µM
